Source: ChEMBL document CHEMBL1128207 (J Med Chem, 1995)

Each molecule was assayed against Progesterone receptor (Oryctolagus cuniculus) (UniProt P06186) (assay: Binding affinity towards rabbit progesterone receptor; not active).

IC50, Not Active:
COc1ccc(C2=NN(C(=O)c3ccc(C(C)(C)C)cc3)CCC2)cc1
COc1ccc(C(=O)N2CCCC(c3ccc(Cl)cc3)=N2)cc1
COc1ccc(C2=NN(C(=O)c3ccc(Br)cc3)CCC2)cc1
COc1ccc(C2=NN(C(=O)c3ccc(C)cc3)CCC2)cc1
CC(C)(C)c1ccc(C(=O)N2CCCC(c3ccccc3)=N2)cc1
COc1ccc(C2=NN(C(=O)c3cccc(Cl)c3)CCC2)cc1
COc1ccc(C2=NN(C(=O)c3ccc(Cl)cc3)CCC2)cc1
Cc1ccc(C(=O)N2CCCC(c3ccccc3)=N2)cc1
COc1ccc(C2=NN(C(=O)c3ccccc3)CCC2)cc1
COc1ccc(C2=NN(C(=O)c3ccc(Cl)c(Cl)c3)CCC2)cc1
O=C(c1ccc(Cl)cc1)N1CCCC(c2ccccc2)=N1
Cc1ccc(C(=O)N2CCCC(c3ccc(Cl)cc3)=N2)cc1
O=C(c1cccc(Cl)c1)N1CCCC(c2ccc(Cl)cc2)=N1
COc1ccc(C(=O)N2CCCC(c3ccccc3)=N2)cc1
O=C(c1ccccc1)N1CCCC(c2ccc(Cl)cc2)=N1
CC(C)(C)c1ccc(C(=O)N2CCCC(c3ccc(Cl)cc3)=N2)cc1
O=C(c1cccc(Cl)c1)N1CCCC(c2ccccc2)=N1
COc1ccc(C(=O)N2CCCC(c3ccc(OC)cc3)=N2)cc1
O=C(c1ccccc1)N1CCCC(c2ccccc2)=N1
O=C(c1ccc(Br)cc1)N1CCCC(c2ccccc2)=N1

The molecules below were run against Progesterone receptor (Oryctolagus cuniculus) (UniProt P06186) (assay: Binding affinity towards rabbit progesterone receptor).

IC50, 100 nM:
O=C(c1ccc([N+](=O)[O-])cc1)N1CCCC(c2ccc(Cl)c(Cl)c2)=N1
O=C(c1ccc(Cl)c(Cl)c1)N1CCCC(c2ccc(Cl)c(Cl)c2)=N1

IC50, 1020 nM:
O=C(c1ccc([N+](=O)[O-])cc1)N1CCCC(c2ccc(F)cc2)=N1

IC50, 270 nM:
O=C(c1ccc([N+](=O)[O-])cc1)N1CCCC(c2ccc(Cl)cc2)=N1

IC50, 470 nM:
O=C(c1cc(Cl)cc(Cl)c1)N1CCCC(c2ccc(Br)cc2)=N1

IC50, 250 nM:
O=C(c1ccc(Cl)c(Cl)c1)N1CCCC(c2ccc(F)cc2)=N1

IC50, 4000 nM:
O=C(c1ccc(Cl)cc1)N1CCCC(c2ccc(Cl)cc2)=N1
O=C(c1ccc(Cl)c(Cl)c1)N1CCCC(c2ccccc2)=N1
